{
  "source": "paper PMC10777851",
  "about": "“SMT-738: a novel small-molecule inhibitor of bacterial lipoprotein transport targeting Enterobacteriaceae” (Antimicrobial Agents and Chemotherapy, 2023)",
  "key": {"[1]": {"system": "HepG2", "assay": "Cytotoxicity (CellTiter-Glo), HepG2", "assay_type": "cell-based", "conditions": "HepG2, 24 h", "description": "HepG2 (ATCC, HB-8065) and HEK293 (ATCC, CRL-1573) were sourced from ATCC. For the cytotoxicity assay, cells were seeded onto 96-well plates, which were then incubated for 24 h in a 5% CO2 incubator at 37°C. On the day of the assay, 10-point, twofold serial dilutions of test compound were prepared in assay media (MEM + 10% FBS) in separate 96-well plates. Assay plates were removed from the incubator, and the media from all of the wells were removed, taking care not to disturb the cell layer. Compound-containing assay media or control media were added to the relevant wells. Assay plates were returned to the 5% CO2 incubator at 37°C for 24 h. CellTiter-Glo reagent (Promega, G7570) was used to determine the viability of the cells."}, "[2]": {"system": "E. coli UTI89", "assay": "Murine UTI infection model", "assay_type": "in vivo, female C3H/HeN mice", "conditions": "urine and kidney, 20 mg/kg QD or BID, 60-min IV infusion over 3 days, readout 96 h; below the limit of detection", "description": "Female JVC (jugular venous catheter)-cannulated C3H/HeN mice were placed on drinking water which was supplemented with 5% glucose solution prior to infection. Mice were infected transurethrally with E. coli UTI89 following published methods. SMT-738 was intravenously infused over 60 min once (QD) or twice (BID, 4 h after the end of first infusion) per day for 3 days starting 24 h post-inoculation. The mice from pre-treatment group were euthanized (with an overdose of pentobarbitone) at 24 h, the remaining mice were euthanized at 96 h post-infection. The kidney, bladder, and urine were collected and quantitatively cultured by plating serial dilutions on appropriate media; CFU were counted after overnight incubation at 37°C. A Kruskal-Wallis statistical test was performed."}, "[3]": {"system": "members of the Enterobacterales order", "assay": "MIC, panel of 100 bacterial species: Enterobacterales", "assay_type": "cell-based", "conditions": "apart from the named exceptions", "description": "(§1) MIC tests were performed by broth microdilution in-line with CLSI susceptibility testing standards ([20], [21]) either in-house or at IHMA (Europe and USA) or JMI Laboratories using cation-adjusted Mueller Hinton Broth."}, "[4]": {"assay": "Solubility in formulation vehicle", "assay_type": "physicochemical", "conditions": "20% Hydroxypropyl-β-cyclodextrin or phosphate buffer pH 6.0"}, "[5]": {"system": "two respiratory isolates (carrying NDM-5 and TEM-OSBL) from Russia in 2019", "assay": "MIC against two cefiderocol-resistant respiratory isolates", "assay_type": "cell-based", "description": "as §1"}, "[6]": {"system": "KPM (K. pneumoniae NCTC 13438) LolC and LolE mutants", "assay": "MIC fold change of resistant LolC/LolE mutants, KPM", "assay_type": "cell-based, Klebsiella pneumoniae", "description": "as §1\n(§2) The FoR of bacterial strains to test compounds was determined by plating aliquots of overnight cultures onto MH-agar plates containing dilutions of the test compound at various multiples of reference MIC as previously determined. Total viable counts of the overnight cultures were determined by spotting 10–20 µL of decimal dilutions in 1× phosphate-buffered saline (PBS) onto non-selective agar. Assay plates were incubated for up to 48 h with colonies being enumerated every 24 h. FoR was determined by dividing the number of colonies observed by the total number of viable cells plated. Representative colonies were then picked and streaked onto selective agar to confirm resistance and obtain resistant isolates. Isolates growing on selective agar were then used to initiate overnight cultures, bacteria pelleted by centrifugation, supernatant removed, and pellets stored at −80°C for subsequent DNA extraction and whole-genome sequencing. Genomic DNA was extracted using the DNeasy Blood and Tissue Kit (Qiagen), quantified using the Quant-iT TM PicoGreen TM dsDNA Assay Kit (Thermo Fisher Scientific), and normalized to 0.2 ng/µL in nuclease-free water. Library preparation and barcode addition were with the Nextera XT DNA Library Prep Kit (Illumina). KAPA Pure beads (Roche) were used for DNA purification. Samples were pooled to achieve 100× coverage of each sample and run on an Illumina Nextseq 500/550 Mid Output Kit v2.5 (150 cycles) (Illumina)."}, "[7]": {"system": "Haemophilus influenzae", "assay": "MIC, panel of 100 bacterial species", "assay_type": "cell-based", "description": "as §1"}, "[8]": {"system": "Proteus sp.", "assay": "MIC, panel of 100 bacterial species", "assay_type": "cell-based", "description": "as §1"}, "[9]": {"system": "Hafnia alvei", "assay": "MIC, panel of 100 bacterial species", "assay_type": "cell-based", "description": "as §1"}, "[10]": {"system": "Morganella morganii", "assay": "MIC, panel of 100 bacterial species", "assay_type": "cell-based", "description": "as §1"}, "[11]": {"system": "Edwardsiella tarda", "assay": "MIC, panel of 100 bacterial species", "assay_type": "cell-based", "description": "as §1"}, "[12]": {"system": "Haemophilus parainfluenzae", "assay": "MIC, panel of 100 bacterial species", "assay_type": "cell-based", "description": "as §1"}, "[13]": {"system": "E. coli", "assay": "MIC by broth microdilution (CLSI) against E. coli", "assay_type": "cell-based, Escherichia coli", "description": "as §1"}, "[14]": {"assay": "Protein binding, mouse", "assay_type": "in vitro ADME"}, "[15]": {"system": "E. coli BAA 2469 (NDM-1 positive)", "assay": "Murine bloodstream infection model", "assay_type": "in vivo, male CD-1 mice", "conditions": "60-min IV infusion, readout 9 h, below the limit of detection", "description": "Male JVC-cannulated CD-1 mice were infected intraperitoneally with E. coli BAA2469. At t = 1 h and t = 6 h, SMT-738 was intravenously infused over 60 min (BID). The mice from the pre-treatment group were euthanized at 1 h post-infection. All remaining mice were euthanized at 9 h post-infection, and blood samples were collected via cardiac puncture. Blood samples were serially diluted in PBS and plated onto cystine-lactose-electrolyte-deficient (CLED) agar. The viable bacterial burden for each sample was determined following overnight incubation at 37°C. A Kruskal-Wallis statistical test was performed."}, "[16]": {"system": "UPEC (E. coli NCTC 13441) LolC and LolE mutants", "assay": "MIC fold change of resistant LolC/LolE mutants, UPEC", "assay_type": "cell-based, Escherichia coli", "description": "as §1\nas §2, with “Library preparation and barcode addition were with the Nextera XT DNA Library Prep Kit (Illumina). KAPA Pure beads (Roche) were used for DNA purification. Samples were pooled to achieve 100× coverage of each sample and run on an Illumina Nextseq 500/550 Mid Output Kit v2.5 (150 cycles) (Illumina).” left out"}, "[17]": {"system": "HepG2 cells", "assay": "Seahorse mitochondrial functional assay", "assay_type": "cell-based", "conditions": "top concentration of 500 µM (= 196.85 µg/mL)", "description": "The Seahorse mitochondrial functional assay was performed by Cyprotex, UK. HepG2 cells were dosed with test compound, and in real time, the extracellular oxygen levels and pH were measured using the Xfe96 flux analyzer (Seahorse Biosciences). Simultaneously, oxygen consumption rate and extracellular acidification rate were measured to determine its effect on oxidative phosphorylation."}, "[18]": {"conditions": "100 MDR clinical isolates incl. ESBL and CRE"}},
  "note": "pIC50: −log10 of the molar value. Several values for one entry are separate records, joined by “and”; a condition that tells them apart may be missing. Equal values may be shown once.",
  "data": [
    {"smiles": "Cc1cnccc1-c1[nH]c(N)nc1-c1ccc2c(c1)N(C(=O)C(C)(C)N)CCO2", "note": "[SMT-738]", "values": [
      {"measurement": "pIC50", "setting": "[1]", "value": "< 3.70"},
      {"measurement": "cytotoxicity IC50", "setting": "[1]", "value": "> 78.74", "unit": "µg/mL"},
      {"measurement": "reduction of bacterial burden compared to pre-treatment", "setting": "[2]", "value": "5–6 log10"},
      {"measurement": "MIC", "setting": "[3]", "value": "0.12 to 2", "unit": "µg/mL"},
      {"measurement": "Solubility", "setting": "[4]", "value": "> 20", "unit": "mg/mL"},
      {"measurement": "MIC", "setting": "[5]; first of the two respiratory isolates", "value": 0.25, "unit": "µg/mL"},
      {"measurement": "MIC", "setting": "[5]; second of the two respiratory isolates", "value": 0.5, "unit": "µg/mL"},
      {"measurement": "MIC fold change increase", "setting": "[6]; LolC E198K mutant", "value": "E198K (64×)"},
      {"measurement": "MIC fold change increase", "setting": "[6]; LolE L60P mutant", "value": "L60P (16×)"},
      {"measurement": "MIC fold change increase", "setting": "[6]; LolE M261R mutant", "value": "M261R (>64×)"},
      {"measurement": "MIC", "setting": "[7]", "value": 1, "unit": "µg/mL"},
      {"measurement": "MIC", "setting": "[8]", "value": "8 to 32", "unit": "µg/mL"},
      {"measurement": "MIC", "setting": "[9]", "value": 32, "unit": "µg/mL"},
      {"measurement": "MIC", "setting": "[10]", "value": "> 64", "unit": "µg/mL"},
      {"measurement": "MIC", "setting": "[11]", "value": 32, "unit": "µg/mL"},
      {"measurement": "MIC", "setting": "[12]", "value": 1, "unit": "µg/mL"},
      {"measurement": "MIC Range E. coli (NDM)", "setting": "[13]; 15 clinical MDR NDM isolates (NDM-1, NDM-4, NDM-5) from India (2018)", "value": "0.25 to 1", "unit": "µg/mL"},
      {"measurement": "MIC50 E. coli", "setting": "[13]; [18]", "value": 0.5, "unit": "µg/mL"},
      {"measurement": "MIC90 E. coli", "setting": "[13]; [18]", "value": 1, "unit": "µg/mL"},
      {"measurement": "MIC range E. coli", "setting": "[13]; [18]", "value": "0.12 to 4", "unit": "µg/mL"},
      {"measurement": "MIC", "setting": "[13]; E. coli BAA 2469 (NDM-1 positive)", "value": 0.5, "unit": "µg/mL"},
      {"measurement": "MIC (20% HS)", "setting": "[13]; E. coli IHMA 2015405, 20% human serum", "value": 0.25, "unit": "µg/mL"},
      {"measurement": "MIC (50% HS)", "setting": "[13]; E. coli IHMA 2015405, 50% human serum", "value": 0.25, "unit": "µg/mL"},
      {"measurement": "MIC (no HS)", "setting": "[13]; E. coli IHMA 2015405, no human serum", "value": 0.5, "unit": "µg/mL"},
      {"measurement": "MIC (20% HS)", "setting": "[13]; E. coli IHMA 2051414, 20% human serum", "value": 0.5, "unit": "µg/mL"},
      {"measurement": "MIC (50% HS)", "setting": "[13]; E. coli IHMA 2051414, 50% human serum", "value": 0.5, "unit": "µg/mL"},
      {"measurement": "MIC (no HS)", "setting": "[13]; E. coli IHMA 2051414, no human serum", "value": 0.5, "unit": "µg/mL"},
      {"measurement": "MIC", "setting": "[13]; E. coli NCTC 13441 (UPEC, MDR, CTX-M-15 ESBL)", "value": "0.39 µM and 0.15 µg/mL"},
      {"measurement": "MIC", "setting": "[13]; E. coli UTI89", "value": 0.5, "unit": "µg/mL"},
      {"measurement": "MICref", "setting": "[13]; UPEC13441, reference MIC of the FoR experiments", "value": 0.3, "unit": "µg/mL"},
      {"measurement": "protein binding", "setting": "[14]", "value": 66.9, "unit": "%"},
      {"measurement": "efficacy in the blood", "setting": "[15]; 10 mg/kg BID", "value": "almost as efficacious as the 20 mg/kg BID dose"},
      {"measurement": "reduction of bacterial burden compared to pre-treatment", "setting": "[15]; blood, 20 mg/kg BID", "value": 4, "unit": "log10"},
      {"measurement": "MIC fold change increase", "setting": "[16]; LolC L256R mutant", "value": "L256R (16×)"},
      {"measurement": "MIC fold change increase", "setting": "[16]; LolE D264A mutant", "value": "D264A (128×)"},
      {"measurement": "mitotoxicity", "setting": "[17]", "value": "No toxicity was observed"}
    ]}
  ]
}
